This note sets out measurements from US11084800B2 (Achillion Pharmaceuticals, Inc., priority 2017, dated 2021).

The structures appear in SMILES notation.

For this assay, the target named is Human Factor D (Homo sapiens (Human), UniProt P00746). Put plainly: Human Factor D Assay. In kind it is biochemical. The following applies: Factor D inhibition, assay of Example 10; read-out: IC5 (Stars). In a few lines: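 Thioester substrate Z-L-Lys-SBz (100 μM) with Ellman's reagent DTNB (100 μM) reports activity of 80 nM human serum-derived enzyme, kinetically at 405 nm over 30 min. Compound preincubated 5 min, room temperature, pH 7.5 Tris/1 M NaCl; IC50 by nonlinear fit of rates.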
Chain of Human Factor D (P00746 26-253): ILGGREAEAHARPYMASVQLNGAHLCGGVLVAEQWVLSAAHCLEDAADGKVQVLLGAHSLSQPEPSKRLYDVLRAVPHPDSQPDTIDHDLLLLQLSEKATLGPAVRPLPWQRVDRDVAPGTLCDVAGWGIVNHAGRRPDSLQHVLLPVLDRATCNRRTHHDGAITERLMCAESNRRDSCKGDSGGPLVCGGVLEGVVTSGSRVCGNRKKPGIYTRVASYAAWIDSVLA
For `CC(=O)c1nn(CC(=O)N2[C@H](C(=O)Nc3nc(Br)ccc3C)C[C@@]3(CN(C(C)C)C(C)C)C[C@@H]23)c2c(C)cc(-c3cnc(C)nc3)cc12` [Compound 415, (1R,3S,5R)-2-(2-(3-acetyl-7-methyl-5-(2-methylpyrimidin-5-yl)-1H-indazol-1-yl)acetyl)-N-(6-bromo-3-methylpyridin-2-yl)-5-((diisopropylamino)methyl)-2-azabicyclo[3.1.0]hexane-3-carboxamide], the IC50 is < 1000 nM. With `CC(=O)c1cn(CC(=O)N2[C@H](C(=O)Nc3nc(Br)ccc3C)C[C@@]3(C)C[C@@H]23)c2ccc(-c3cnc(C)nc3)cc12` [Compound 416, (1R,3S,5R)-2-(2-(3-acetyl-5-(2-methylpyrimidin-5-yl)-1H-indol-1-yl)acetyl)-N-(6-bromo-3-methylpyridin-2-yl)-5-methyl-2-azabicyclo[3.1.0]hexane-3-carboxamide] the figure was < 1000 nM. In the case of `CC(=O)c1nn(CC(=O)N2C[C@@](F)(CF)C[C@H]2C(=O)Nc2nc(Br)c(F)cc2C)c2c(C)nc(-c3cnc(C)nc3)cc12` [Compound 417, (2S,4R)-1-(2-(3-acetyl-7-methyl-5-(2-methylpyrimidin-5-yl)-1H-pyrazolo[3,4-c]pyridin-1-yl)acetyl)-N-(6-bromo-5-fluoro-3-methylpyridin-2-yl)-4-fluoro-4-(fluoromethyl)pyrrolidine-2-carboxamide], the IC50 is < 1000 nM. With `CC(=O)c1nn(CC(=O)N2C[C@@](F)(CF)C[C@H]2C(=O)Nc2cncc(Br)n2)c2c(C)nc(-c3cnc(C)nc3)cc12` [Compound 418, (2S,4R)-1-(2-(3-acetyl-7-methyl-5-(2-methylpyrimidin-5-yl)-1H-pyrazolo[3,4-c]pyridin-1-yl)acetyl)-N-(6-bromopyrazin-2-yl)-4-fluoro-4-(fluoromethyl)pyrrolidine-2-carboxamide], the IC50 was < 1000 nM. Turning to `CC(=O)c1nn(CC(=O)N2C[C@](F)(Cn3ccnn3)C[C@H]2C(=O)Nc2nc(Br)ccc2C)c2ccc(-c3cnc(C)nc3)cc12` [Compound 419], the IC50 is < 1000 nM.

For the molecule `CC(=O)c1nn(CC(=O)N2C[C@](F)(CN(C)C)C[C@H]2C(=O)Nc2nc(Br)ccc2C)c2ccc(-c3cnc(C)nc3)cc12` [Compound 420, (2S,4R)-1-(2-(3-acetyl-5-(2-methylpyrimidin-5-yl)-1H-indazol-1-yl)acetyl)-N-(6-bromo-3-methylpyridin-2-yl)-4-((dimethylamino)methyl)-4-fluoropyrrolidine-2-carboxamide], the IC50 is 1000 to 10000 nM.

Take `CC(=O)c1nn(CC(=O)N2C[C@](F)(CF)C[C@H]2C(=O)Nc2nc(Br)ccc2C)c2ccc(-c3cnc(C)nc3)cc12` [Compound 422, (2S,4S)-1-(2-(3-acetyl-5-(2-methylpyrimidin-5-yl)-1H-indazol-1-yl)acetyl)-N-(6-bromo-3-methylpyridin-2-yl)-4-fluoro-4-(fluoromethyl)pyrrolidine-2-carboxamide]: the IC50 was < 1000 nM. Turning to `CC(=O)c1nn(CC(=O)N2[C@H](C(=O)Nc3nc(Br)c(F)cc3C)C[C@@]3(Cc4nc(C)no4)C[C@@H]23)c2c(C)nc(-c3cnc(C)nc3)cc12` [Compound 423, (1R,3S,5R)-2-(2-(3-acetyl-7-methyl-5-(2-methylpyrimidin-5-yl)-1H-pyrazolo[3,4-c]pyridin-l-yl)acetyl)-N-(6-bromo-5-fluoro-3-methylpyridin-2-yl)-5-((3-methyl-1,2,4-oxadiazol-5-yl)methyl)-2-azabicyclo[3.1.0]hexane-3-carboxamide], the IC50 is < 1000 nM. On to `CC(=O)c1nn(CC(=O)N2[C@H](C(=O)Nc3nc(Br)c(F)cc3C)C[C@@]3(Cc4nc(C)no4)C[C@@H]23)c2c(C)cc(-c3cnc(C)nc3)cc12` [Compound 424, (1R,3S,5R)-2-(2-(3-acetyl-7-methyl-5-(2-methylpyrimidin-5-yl)-1H-indazol-1-yl)acetyl)-N-(6-bromo-5-fluoro-3-methylpyridin-2-yl)-5-((3-methyl-1,2,4-oxadiazol-5-yl)methyl)-2-azabicyclo[3.1.0]hexane-3-carboxamide], for which the IC50 was < 1000 nM. With `CC(=O)c1nn(CC(=O)N2[C@H](C(=O)Nc3nc(C(F)(F)F)ccc3C)C[C@@]3(Cc4nc(C)no4)C[C@@H]23)c2c(C)cc(-c3cnc(C)nc3)cc12` [Compound 425, (1R,3S,5R)-2-(2-(3-acetyl-7-methyl-5-(2-methylpyrimidin-5-yl)-1H-indazol-1-yl)acetyl)-5-((3-methyl-1,2,4-oxadiazol-5-yl)methyl)-N-(3-methyl-6-(trifluoromethyl)pyridin-2-yl)-2-azabicyclo[3.1.0]hexane-3-carboxamide] the figure was < 1000 nM; with `CC(=O)c1cn(CC(=O)N2[C@H](C(=O)Nc3nc(Br)ccc3C)C[C@@]3(C)C[C@@H]23)c2c(C)cc(-c3cnc(C)nc3)cc12` [Compound 426, (1R,3S,5R)-2-(2-(3-acetyl-7-methyl-5-(2-methylpyrimidin-5-yl)-1H-indol-1-yl)acetyl)-N-(6-bromo-3-methylpyridin-2-yl)-5-methyl-2-azabicyclo[3.1.0]hexane-3-carboxamide], < 1000 nM. With `CC(=O)c1nn(CC(=O)N2[C@H](C(=O)NCc3cccc(Cl)c3F)C[C@@]3(Cc4nc(C)no4)C[C@@H]23)c2c(C)cc(-c3cnc(C)nc3)cc12` [Compound 427, (1R,3S,5R)-2-(2-(3-acetyl-7-methyl-5-(2-methylpyrimidin-5-yl)-1H-indazol-1-yl)acetyl)-N-(3-chloro-2-fluorobenzyl)-5-((3-methyl-1,2,4-oxadiazol-5-yl)methyl)-2-azabicyclo[3.1.0]hexane-3-carboxamide] the figure was < 1000 nM. In the case of `CC(=O)c1nn(CC(=O)N2[C@H](C(=O)Nc3nc(Br)ccc3Cl)C[C@@]3(Cc4nc(C)no4)C[C@@H]23)c2c(C)cc(-c3cnc(C)nc3)cc12` [Compound 428, (1R,3S,5R)-2-(2-(3-acetyl-7-methyl-5-(2-methylpyrimidin-5-yl)-1H-indazol-1-yl)acetyl)-N-(6-bromo-3-chloropyridin-2-yl)-5-((3-methyl-1,2,4-oxadiazol-5-yl)methyl)-2-azabicyclo[3.1.0]hexane-3-carboxamide], the IC50 is < 1000 nM.

`CC(=O)c1nn(CC(=O)N2[C@H](C(=O)Nc3nc(Br)ccc3C)C[C@@]3(Cc4nnc(C)o4)C[C@@H]23)c2c(CF)cc(-c3cnc(C)nc3)cc12` [Compound 429, (1R,3S,5R)-2-(2-(3-acetyl-7-(fluoromethyl)-5-(2-methylpyrimidin-5-yl)-1H-indazol-1-yl)acetyl)-N-(6-bromo-3-methylpyridin-2-yl)-5-((5-methyl-1,3,4-oxadiazol-2-yl)methyl)-2-azabicyclo[3.1.0]hexane-3-carboxamide]: the IC50 is < 1000 nM. As for `CC(=O)c1nn(CC(=O)N2C[C@](C)(F)C[C@H]2C(=O)Nc2nc(Br)ccc2C)c2ccc(-c3cnc(C)nc3)cc12` [Compound 430, (2S,4R)-1-{2-[3-Acetyl-5-(2-methylpyrimidin-5-yl)indazol-1-yl]acetyl}-N-(6-bromo-3-methylpyridin-2-yl)-4-fluoro-4-methylpyrrolidine-2-carboxamide], the IC50 is < 1000 nM.

As for `Cc1ncc(-c2cc3c(C(N)=O)nn(CC(=O)N4[C@H](C(=O)Nc5nc(Br)c(F)cc5C)C[C@@]5(C)C[C@@H]45)c3c(C)n2)cn1` [Compound 431, 1-(2-((1R,3S,5R)-3-((6-bromo-5-fluoro-3-methylpyridin-2-yl)carbamoyl)-5-methyl-2-azabicyclo[3.1.0]hexan-2-yl)-2-oxoethyl)-7-methyl-5-(2-methylpyrimidin-5-yl)-1H-pyrazolo[3,4-c]pyridine-3-carboxamide], the IC50 was < 1000 nM. With `CC(=O)c1nn(CC(=O)N2C[C@](C)(F)C[C@H]2C(=O)Nc2nc(Br)ccc2C)c2c(C)nc(-c3cnc(C)nc3)cc12` [Compound 432, (2S,4R)-1-(2-(3-acetyl-7-methyl-5-(2-methylpyrimidin-5-yl)-1H-pyrazolo[3,4-c]pyridin-1-yl)acetyl)-N-(6-bromo-3-methylpyridin-2-yl)-4-fluoro-4-methylpyrrolidine-2-carboxamide] the figure was < 1000 nM; with `CC(=O)c1nn(CC(=O)N2C[C@](C)(F)C[C@H]2C(=O)Nc2nc(Br)ccc2C)c2c(C)cc(-c3cnc(C)nc3)cc12` [Compound 433, (2S,4R)-1-(2-(3-acetyl-7-methyl-5-(2-methylpyrimidin-5-yl)-1H-indazol-1-yl)acetyl)-N-(6-bromo-3-methylpyridin-2-yl)-4-fluoro-4-methylpyrrolidine-2-carboxamide], < 1000 nM; with `CC(=O)c1nn(CC(=O)N2[C@H](C(=O)NCc3cccc(Cl)c3F)C[C@@]3(Cc4nnc(C)o4)C[C@@H]23)c2c(C)cc(-c3cnc(C)nc3)cc12` [Compound 434, (1R,3S,5R)-2-(2-(3-acetyl-7-methyl-5-(2-methylpyrimidin-5-yl)-1H-indazol-1-yl)acetyl)-N-(3-chloro-2-fluorobenzyl)-5-((5-methyl-1,3,4-oxadiazol-2-yl)methyl)-2-azabicyclo[3.1.0]hexane-3-carboxamide], < 1000 nM.

Consider `CC(=O)c1nn(CC(=O)N2[C@H](C(=O)Nc3nc(C(F)(F)F)ccc3C)C[C@@]3(Cc4nnc(C)o4)C[C@@H]23)c2c(C)cc(-c3cnc(C)nc3)cc12` [Compound 435, (1R,3S,5R)-2-(2-(3-acetyl-7-methyl-5-(2-methylpyrimidin-5-yl)-1H-indazol-1-yl)acetyl)-5-((5-methyl-1,3,4-oxadiazol-2-yl)methyl)-N-(3-methyl-6-(trifluoromethyl)pyridin-2-yl)-2-azabicyclo[3.1.0]hexane-3-carboxamide], for which the IC50 is < 1000 nM. `Cc1ncc(-c2cc3c(C(N)=O)nn(CC(=O)N4C[C@H]5C[C@H]5[C@H]4C(=O)Nc4nc(Br)ccc4C)c3c(C)n2)cn1` [Compound 436, 1-(2-((1R,25,5S)-2-((6-bromo-3-methylpyridin-2-yl)carbamoyl)-3-azabicyclo[3.1.0]hexan-3-yl)-2-oxoethyl)-7-methyl-5-(2-methylpyrimidin-5-yl)-1H-pyrazolo[3,4-c]pyridine-3-carboxamide]: the IC50 is < 1000 nM.
